Measured values from patent publication US8603737B2, “Methods for identifying HCV protease inhibitors” (priority 2008, dated 2013).

Key:
[1] = target: T1, NS3 protease self-cleavage in Huh-7-Luc-Neo-ET cells (Hepatitis C virus genotype 1b, UniProt Q9WMX2, E1202G/T1280I); assay type: cell-based, HCV; details: wild type replicon cells
T1 construct: host or cells: Huh-7-Luc-Neo-ET replicon cells (human hepatoma Huh7)
Procedure: Inhibition of Protease Self Cleavage
The remaining wells were rinsed 2× with PBS then fed with Replicon Media and returned to the incubator.
Cell lysates were separated by SDS-Page (4-20%) and transferred to Immobilon-P PVDF membrane (Millipore Corporation, MA) and blotted with polyclonal anti NS3 antibody (Bioenza, Calif.). Blots were scanned on an Odyssey infrared scanner from Licor and the FL band and cleavage products were quantified separately using the Licor software provided with the scanner. The cleavage product was calculated as a percentage of the total NS3 in each sample and then normalized to the DMSO control so that the DMSO control reflects 100% activity.

[2] = tested on: HCV NS3/4A genotypes 1a, 1b, 2a, and 3a; experiment: Mass spectrometric analysis of covalent modification, NS3/4A genotypes; assay type: binding; details: 3 hours reaction, each genotype 1a, 10-fold excess of compound
Procedure: Mass spectrometric analysis of HCV wild type or HCV variants (C159S, A156S, R155K, D168A, A156T, and D168V) in the presence of test compound was performed. 100 pmols of HCV wild type (Bioenza Calif.) was incubated with test compound for 1 hr and 3 hrs at 10-fold excess of test compound to protein. 1 μL aliquots of the samples (total volume of 4.24 μL) were diluted with 10 μL of 0.1% TFA prior to micro C4 ZipTipping directly onto the MALDI target using Sinapinic acid as the desorption matrix (10 mg/mL in 0.1% TFA:Acetonitrile 50:50). Analyses were performed on a Shimadzu Biotech Axima TOF (Shimadzu Instruments) matrix-assisted-laser desorption/ionization Time-of-Flight (MALDI-TOF) mass spectrometer. The same procedure was carried out on 100 pmols of HCV C159S mutant of HCV protease for 3 hrs at 10-fold excess of test compound to protein.
In addition, mass spectrometric analysis of HCV NS3/4A genotypes 1a, 1b, 2a, and 3a in the presence of test compound was performed using the above protocol.

[3] = tested on: HCV RNA replicon in cell line ET (luc-ubi-neo/ET), human Huh7 hepatoma; experiment: Luciferase reporter replicon assay (Example 5, Method C); assay type: cell-based; details: Hepatitis C virus, Huh-7, 72 hr, EC90, read-out: Inhibition, Replicon, EC90 value
Procedure: Method C: Luciferase Reporter Assay Protocol
The compounds were assayed to evaluate the antiviral activity and cytotoxicity of compounds using replicon-derived luciferase activity. This assay used the cell line ET (luc-ubi-neo/ET), which is a human Huh7 hepatoma cell line that contains an HCV RNA replicon with a stable luciferase (Luc) reporter and three cell culture-adaptive mutations. The ET cell line was grown in a 5% CO2 incubator at 37° C. in Dulbecco's modified essential media (DMEM), supplemented with 2 mM L-glutamine (“1%”), nonessential amino acids, 100 U of penicillin/mL, 100 μg of streptomycin/mL (“1%”), 10% fetal bovine serum and 400 μg/mL G418 (Geneticin; Invitrogen).
All cell culture reagents were obtained from Invitrogen (Carlsbad). Cells were trypsinized (1% trypsin:EDTA) and plated out at 5×10^3 cells/well in white 96-well assay plates (Costar) dedicated to cell number (cytotoxicity) or antiviral activity assessments. Test compounds were added at six 3-fold serial dilutions each and the assay was run in DMEM, 5% FBS, 1% pen-strep, 1% glutamine, 1% non essential amino acid. Human interferon alpha-2b (PBL Biolabs, New Brunswick, N.J.) was included in each run as a positive control compound. Cells were processed 72 hr post test compound addition when the cells were still subconfluent. Antiviral activity was measured by analyzing replicon-derived luciferase activity using the Steady-Glo Luciferase Assay System (Promega, Madison, Wis.) according to manufacturer's instruction. The number of cells in each well was determined by Cell Titer Blue Assay (Promega). Compound profile was derived by calculating applicable EC50 (effective concentration inhibiting virus replication by 50%), EC90 (effective concentration inhibiting virus replication by 90%), IC50 (concentration decreasing cell viability by 50%) and SI50 (selective index: […]) values.

[4] = target: T2, NS3 protease R155K self-cleavage in modified replicon system (Hepatitis C virus genotype 1b, UniProt Q9WMX2, E1202G/R1181K/T1280I); experiment: Inhibition of protease self cleavage in R155K modified replicon system (washout); assay type: cell-based, HCV; details: R155K modified replicon system (FIG. 6)
T2 construct: expressed in transfected cells; host or cells: replicon cells carrying the R155K-mutated pFK-I389-luc-ubi-neo-NS3-3'ET replicon
Procedure: Constructs containing clinically relevant mutations were generated by performing site-directed mutagenesis on the pFK-1389-luc-ubi-neo-NS3-3′ET plasmid (ReBLikon Gmbh (Heidelberg, Germany)). using the QuickChange II Site-Directed Mutagenesis Kit (Stratagene, La Jolla, Calif.) according to manufacturer's directions and with the primers described in Table 2.
Huh-7-Luc-Neo-ET cells were plated in Replicon Assay Medium (RPMI supplemented with 5% FBS, 1× non-essential amino acids and pen/strep) at a density of 1×10^5 cells/well in 12 well plates. Eight hours later the media was removed and replaced with 1 mL media containing test compound (5 wells per compound) and 0.02% DMSO and the cells were returned to the incubator overnight. […]
Cell lysates were separated by SDS-Page (4-20%) and transferred to Immobilon-P PVDF membrane (Millipore Corporation, MA) and blotted with polyclonal anti NS3 antibody (Bioenza, Calif.). Blots were scanned on an Odyssey infrared scanner from Licor and the FL band and cleavage products were quantified separately using the Licor software provided with the scanner. The cleavage product was calculated as a percentage of the total NS3 in each sample and then normalized to the DMSO control so that the DMSO control reflects 100% activity. […]

[5] = target: T3, D168V mutant of the HCV NS3/4A 1b protease enzyme (Hepatitis C virus genotype 1b, UniProt P26663, D1194V); experiment: HCV protease FRET assay, D168V mutant; assay type: biochemical; details: read-out: Inhibition, HCV D168V (IC50)
T3 construct: 10× stocks of NS3/4A protease enzyme from Bioenza; purchased Bioenza (Mountain View, Calif.)
Procedure: HCV Protease FRET Assay for Mutated NS3/4A 1b Enzymes
The protocol is a modified FRET-based assay (v—02) from In Vitro Resistance Studies of HCV Serine Protease Inhibitors, 2004, JBC, vol. 279, No. 17, pp 17508-17514. Inherent potency of compounds was assessed against A156S, A156T, D168A, and D168V mutants of the HCV NS3/4A 1b protease enzyme as follows:
Assay buffer: 2% CHAPS, 50 mM Tris pH 7.5, 50% glycerol, 2 μM M-2235 (Bachem) substrate. In a 50 μl reaction, add 49 μl assay buffer, 1 μl (1 U) HCV serine protease (Bioenza). Incubate 20 minutes at room temperature. The plate was read at either 350/460 nm (excitation/emission) on a fluorescent micro-plate reader or monitored at one-minute intervals to achieve the kinetic curve.
10× stocks of NS3/4A protease enzyme from Bioenza (Mountain View, Calif.) and 1.13×5-FAM/QXL™520 FRET peptide substrate from Anaspec (San Jose, Calif.) were prepared in 50 mM HEPES, pH 7.8, 100 mM NaCl, 5 mM DTT and 20% glycerol. 5 μL of each enzyme were pre-incubated in a Corning (#3573) 384-well, black, non-treated microtiter plate (Corning, N.Y.) for 30 min at 25° C. with a 0.5 μL volume of 50% DMSO and serially diluted compounds prepared in 50% DMSO. Protease reactions were started with the addition of 45 μL of the FRET substrate and monitored for 120 minutes at λex487/λem514 through Quad^4 monochromoters in a Synergy^4 plate reader from BioTek (Winooski, Vt.). […] Initial velocity (0 minutes to 30+ minutes) from each reaction was determined from the slope of a plot of relative fluorescence units vs time (minutes) and then plotted against inhibitor concentration to estimate IC50 from log[Inhibitor] vs Response, Variable Slope model in GraphPad Prism from GraphPad Software (San Diego, Calif.). […]
The following protocol was used to generate “apparent” IC50 (IC50—APP)) values as depicted in Table 3, below. […] Protease reactions were immediately started after enzyme addition with the addition of 45 μL of the FRET substrate and monitored for 60-90 minutes at λex485/λem520 in a Synergy^4 plate reader from BioTek (Winooski, Vt.). […]

Compound: CCC[C@H](NC(=O)[C@@H]1[C@H]2CCC[C@H]2CN1C(=O)[C@@H](NC(=O)[C@@H](NC(=O)c1cnccn1)C1CCCCC1)C(C)(C)C)C(=O)C(=O)NC1CC1 [Compound 1, reference compound]
- return of NS3 self-cleavage activity after drug removal ([1]; 16 hours incubation, in as little as 4 hours after drug removal): virtually complete return of activity

Compound: C=C[C@@H]1C[C@]1(NC(=O)[C@@H]1C[C@@H](Oc2nccc3cc(OC)ccc23)CN1C(=O)[C@H](CCC(=O)C=C(C)C)NC(=O)OC(C)(C)C)C(=O)NS(=O)(=O)C1CC1 [Compound 5]
- covalent modification of HCV NS3/4A (mass spectrometry) [2]: measurable covalent modification

Compound: C=C[C@@H]1C[C@]1(NC(=O)[C@@H]1C[C@@H]2CN1C(=O)[C@H](CCC(=O)C=C(C)C)NC(=O)OCCC/C=C/c1ccc3ccnc(c3c1)O2)C(=O)NS(=O)(=O)C1CC1 [Compound 6]
- EC90 [3]: < 10 nM

Compound: C=CC(=O)N[C@H](C)C(=O)N1C[C@H](Oc2cc(-c3ccccc3)nc3cc(OC)ccc23)C[C@H]1C(=O)N[C@]1(C(=O)NS(=O)(=O)C2CC2)C[C@H]1C=C [Compound 7]
- inhibition of NS3 self-cleavage after compound removal ([1]; up to 24 hours after compound removal (FIG. 5)): virtually complete inhibition
- duration of inhibition of mutant protease activity after compound removal [4]: at least 24 hours
- IC50 [5]: 100 to 1000 nM
